# Test results published in patent EP1992637A1, “1-Aminocyclopentane-1,3,4- tricarboxylic acids derivatives” (priority 2007, dated 2008).
# Legend:
# haldol-induced catalepsy = test: Haldol-induced catalepsy model of Parkinson's disease, bar test; format: in vivo; settings: mice
# Procedure: The compounds of the invention were evaluated in a model of Parkinson's disease, the haldol-induced catalepsy model in mice. Catalepsy was assessed using the bar test in mice submitted to acute administration of the dopamine D2 receptor antagonist haloperidol (1mg/kg, intraperitoneally or ip). Mice (male RjOrl: Swiss mice, weighing 30 - 35 g at the beginning of the experiment) placed in group of 5 in Plexiglas cages, were injected with haloperidol (1 mg/kg ip). […] The catalepsy response of one mouse was measured as the time the animal maintained an imposed posture with both forelimbs placed on a horizontal 0.9cm-diameter wire bar suspended 4cm above a platform. The end point of catalepsy was considered to occur when both forelimbs were removed from the bar, the mouse climbed onto the bar or if the animal moved its head in an exploratory manner. A cutoff time of 180 seconds was applied. The degree of catalepsy was scored 60 minutes after haloperidol administration and continued at 30 or 60 minutes intervals for a total of 240-300 minutes. Between measurements, the animals were returned to their home cages. This procedure was adapted from the literature: (e.g. Pires et al., Braz J Med and Biol Res 38, 1867-1872, 2005; Shiozaki et al., Psychopharmacology 147, 90-95, 1999). Parent compound and corresponding vehicle, given either intraperitoneally (ip) or orally (po), were administered 30 minutes after haldol administration. Prodrugs and corresponding vehicle were injected 4h before haldol administration. Prodrug dose is expressed in equivalent of parent compound.
# Data analysis: the figures 2 and 3 show the mean time of latency spent on the bar for each group of animals. At each time-point, the anti-cataleptic effects of parent compound and prodrugs were compared to vehicle-treated groups using 1-factor ANOVA test followed by the Dunnett's test. Datapoints marked with "*" in figures 3 or 4 indicates p<0.05; "**" indicates p<0.01.
# [1] = In vivo pharmacokinetic evaluation (ACPT-I in plasma, LC/MS/MS); settings: rat, po, 30 mg/kg
# [2] = 100mg/kg orally (dose in equivalent of parent compound), given 4h before haldol (1 mg/kg ip)
SMILES,"anticataleptic activity (haldol-induced catalepsy; 30mg/kg ip, given 30 minutes after haldol (1 mg/kg ip))","anticataleptic activity (haldol-induced catalepsy; 100mg/kg oral administration, given 30 minutes after haldol (1 mg/kg ip))",bioavailability [1],anticataleptic activity (haldol-induced catalepsy; [2])
"N[C@@]1(C(=O)O)C[C@H](C(=O)O)[C@H](C(=O)O)C1 [ACPT-I, (1S, 3R, 4S) -1-aminocyclopentane-1,3,4-tricarboxylic acid]",significantly reduced catalepsy,no anticataleptic activity,1.14%,
"CC(C)C[C@H](N)C(=O)N[C@@]1(C(=O)O)C[C@H](C(=O)O)[C@H](C(=O)O)C1 [Example 1, (1S, 3R, 4S)-1-{[(2'S)-2'-amino-4'-methylpentanoyl]amino}cyclopentane-1,3,4-tricarboxylic acid]",,,,significantly reduced the haldol-induced cataleptic response
"C[C@H](N)C(=O)N[C@@]1(C(=O)O)C[C@H](C(=O)O)[C@H](C(=O)O)C1 [Example 3, (1S, 3R, 4S)-1-{[(2'S)-'2-aminopropanoyl]amino}cyclopentane-1,3,4-tricarboxylic acid]",,,,significantly reduced the haldol-induced cataleptic response
